Data from patent EP2818471A1, “Nitrogen bicyclic compounds as inhibitors for Scyl1 and Grk5” (Max-Planck-Gesellschaft zur Förderung der Wissenschaften …, priority 2013, dated 2014).
pIC50: −log10 of the molar value.

Legend:
full length Grk5 = biological target: T1, full length Grk5 (Homo sapiens, UniProt P34947); experiment: GRK5 kinase activity assay (ADP Glo Kinase Assay); type: biochemical; conditions: Table 5
T1 construct: 2 µl 6/2 fold concentrated full length Grk5 (Millipore, #14-714) in reaction buffer is added to each well; purchased Millipore 14-714
T1 sequence (P34947 whole entry): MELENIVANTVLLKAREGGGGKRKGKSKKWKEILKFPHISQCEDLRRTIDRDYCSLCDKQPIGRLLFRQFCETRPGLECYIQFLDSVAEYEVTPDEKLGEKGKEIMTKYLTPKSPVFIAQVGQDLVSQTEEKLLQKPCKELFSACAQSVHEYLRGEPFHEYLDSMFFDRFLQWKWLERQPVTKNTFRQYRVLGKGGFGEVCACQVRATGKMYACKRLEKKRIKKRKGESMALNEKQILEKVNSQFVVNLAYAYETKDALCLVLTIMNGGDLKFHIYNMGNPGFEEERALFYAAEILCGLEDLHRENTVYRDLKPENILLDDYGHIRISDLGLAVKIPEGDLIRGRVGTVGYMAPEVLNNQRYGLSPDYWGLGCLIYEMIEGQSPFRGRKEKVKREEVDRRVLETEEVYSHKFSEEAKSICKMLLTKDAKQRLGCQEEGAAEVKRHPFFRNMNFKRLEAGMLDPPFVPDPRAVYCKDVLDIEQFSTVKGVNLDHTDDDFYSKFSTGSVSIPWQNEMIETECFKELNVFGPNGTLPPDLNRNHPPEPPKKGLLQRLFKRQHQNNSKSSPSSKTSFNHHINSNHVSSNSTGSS
Procedure: Increasing concentrations of GRK5 are incubated together with 100 µM ATP in the absence and presence of 10 µM casein in a reaction buffer. Within this incubation non-phosphorylated casein is converted into phosphorylated casein and ATP is converted into ADP. Thereafter nonconverted ATP is digested into AMP by addition of the ADP-Glo™Reagent. Subsequently the ADP that is produced by GRK5 activity is phosphorylated back to ATP by addition of Promega Kinase Detection Reagent. These ATP levels serve as measure for the GRK5 activity and are quantified by a luciferase/luciferin reaction.
Km(ATP) was determined by measuring the GRK5 activity at increasing ATP concentrations.
The reaction buffer used was composed of: 20 mM MES pH 6.0, 1 mM DTT, 10 mM MgCl2, 0.01 % Tween20 and the reaction volume was 6µl.
Firstly 4 µl 6/4 fold concentrated substrate and 6/4 fold concentrated ATP in 1 fold concentrated reaction buffer are added to each well of the assay plate. Subsequently 67 nl 1000 fold concentrated test compound in 100 % DMSO are added to each well except to C- and C+ wells using pin tool. Then 67 nl 100 % DMSO are pipetted to C- (no kinase, no compound) and C+ (no compound) wells using pin-tool and 2 µl reaction buffer are added to C- wells. […] Finally, after incubation for 40 min at room temperature the luminescence intensity was measured. […]

[1] = biological target: T2, full length human Scyl1 (1-808) protein (Homo sapiens, UniProt Q96KG9); experiment: SCYL1 reporter probe displacement assay; type: binding
T2 construct: The target enzyme used was the full length human Scyl1 (1-808) protein
T2 sequence (Q96KG9 1-808): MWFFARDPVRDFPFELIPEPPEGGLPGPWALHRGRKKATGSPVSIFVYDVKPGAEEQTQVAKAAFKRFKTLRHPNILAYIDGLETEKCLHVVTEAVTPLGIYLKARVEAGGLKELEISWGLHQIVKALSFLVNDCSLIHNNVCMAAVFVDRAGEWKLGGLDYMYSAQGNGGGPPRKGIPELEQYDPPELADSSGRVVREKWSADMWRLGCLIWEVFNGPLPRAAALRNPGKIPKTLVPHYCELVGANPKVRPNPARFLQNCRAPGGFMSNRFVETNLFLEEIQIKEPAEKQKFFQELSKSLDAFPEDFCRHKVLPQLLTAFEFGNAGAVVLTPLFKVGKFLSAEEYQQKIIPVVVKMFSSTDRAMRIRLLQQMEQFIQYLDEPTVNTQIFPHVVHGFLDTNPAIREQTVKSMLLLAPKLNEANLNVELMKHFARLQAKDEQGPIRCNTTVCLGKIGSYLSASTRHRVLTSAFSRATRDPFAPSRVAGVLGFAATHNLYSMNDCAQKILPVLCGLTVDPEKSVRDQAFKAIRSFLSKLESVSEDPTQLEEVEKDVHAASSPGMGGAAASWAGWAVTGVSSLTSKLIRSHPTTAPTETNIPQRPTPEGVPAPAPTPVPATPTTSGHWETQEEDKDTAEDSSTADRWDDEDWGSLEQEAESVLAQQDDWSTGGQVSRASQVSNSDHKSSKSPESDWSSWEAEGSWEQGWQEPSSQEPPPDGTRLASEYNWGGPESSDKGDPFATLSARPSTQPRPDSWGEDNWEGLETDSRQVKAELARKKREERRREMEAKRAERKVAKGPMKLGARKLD
Procedure: The reporter displacement assay is based on reporter probe (PRO16, Proteros GmbH) that is designed to bind to ATP-binding site of SCYL1 (Methods in Enzymology, 2011, vol. 493, p. 300-319). The proximity between reporter probe and target protein (SCYL1) results in the emission of an optical signal. Test compounds that bind to the same site as the reporter probe displace the probe, causing signal diminution. The rate of reporter probe displacement is measured over time after addition of test compounds at various concentrations.
For Kd determination, percent reporter probe displacement values are calculated for the last time point, at which the system has reached equilibrium. For each compound concentration percent probe displacement values are calculated and plotted against the compound concentration. IC50-like values (corresponding to 50% probe displacement) are calculated using standard fitting algorithms. […] Thus, according to the Cheng Prusoff equation, the Kd value of test compounds can be calculated with Kd = ½ IC50. […]
Probe displacement was calculated in relation to the C+(positive) and C-(negative) controls. The signal reflecting 0% probe displacement (C+) was measured in the absence of test compound, while the signal representing 100% probe displacement (C-) was measured in the absence of Scyl1. […]

Question: How did the pIC50 (full length Grk5) turn out when NC(=O)c1ccc(-c2cnc3ccc(Cc4ccc(F)cc4)nn23)cc1 [compound 1, 4-[6-[(4-fluorophenyl)methyl]imidazo[1,2-b]pyridazin-3-yl]benzamide] was run?
Answer: Its pIC50 is 4.10 to 4.70.

Question: Which results are given for COc1cc(-c2ccc3ncc(-c4cccnc4)n3n2)cc(OC)c1OC [compound 10, 3-(3-pyridyl)-6-(3,4,5-trimethoxyphenyl)imidazo[1,2-b]pyridazine]?
Answer: pIC50 ([1]; Scyl1 probe displacement): 6.30; Inh. ([1]; probe displacement, primary screen): 100%
